In patent US20260271925A1, “DYSREGULATION OF PLANKTONIC BACTERIAL METABOLISM” (Lixa Limited, priority 2023, published 2026):

Assays:
[1] = cited from earlier work
S. pneumoniae D39 [2] = experiment: Resazurin reduction for the evaluation of metabolic activity (Example 2); assay type: cell-based, Streptococcus pneumoniae; settings: plus 10 mM D-Lactic acid
Experimental: Bacterial strains were maintained as suspensions in 20% (v/v) glycerol/Brain-Heart Infusion at −80° C.
Aerobic respiration was measured in the presence or absence of D-Lactic acid and the presence or absence of companion antibiotics either following incubation and visual recording of the MIC, or in a separate study. For evaluation after completion of MIC determination, the entire volume of the MIC well (100 μl) was mixed by pipetting up and down, then transferred to the equivalent well of a fluorescence-absorbance suitable 96-well plate. Alternatively, cultures were pipetted together as above and incubated overnight at 37° C. in the absence of any antimicrobial compounds. Culture supernatants were removed, adherent cells washed and then treated by the addition of 100 μL of fresh broth, 50 μL of broth containing 4×the desired concentration of antibiotic and 50 μL containing 4×the desired concentration of D-Lactic acid or vehicle only controls, followed by incubation at 37° C. for a further 18±2 hours. After incubation regimes were completed for both procedures, resazurin reduction was evaluated by adding 10 μl of a 0.02% resazurin solution to every well, and incubating the plates with gentle shaking (40 rpm) for a further 90 minutes at 37° C. 96-well plates and resazurin were protected from light as much as possible.
Following incubation, the 96-well trays were read on a fluorescence-absorbance spectrophotometer, using an excitation frequency of 565 nm and emission frequency of 590 nm. The value for each well was blanked by subtracting the value of the negative control. Every value was then converted to a ratio with respect to the mean value of the positive controls.

S. pneumoniae D39 [3] = experiment: Minimum inhibitory concentration by broth microdilution (Example 2); assay type: cell-based, Streptococcus pneumoniae
Experimental: (§1) Bacterial strains were maintained as suspensions in 20% (v/v) glycerol/Brain-Heart Infusion at −80° C. For use, a loop-full of ice was scraped from the stock and streaked for single colonies on rich media containing 1.8% agar (for Pseudomonas aeruginosa or Klebsiella pneumoniae, Luria-Bertani medium; for Staphylococcus aureus or Streptococcus pneumoniae, Trypticase Soy agar) and incubated overnight at 37° C.
(§2) A standard inoculum was prepared from broth culture. 1 to 3 colonies from an overnight agar culture plate were transferred to 5 ml of broth media and incubated at 37° C. with shaking (200 rpm) until turbidity was greater than that of a 0.5 McFarland Standard (overnight). The following broth media were used: Cation-adjusted Mueller-Hinton broth (caMHB—all strains); Roswell Park Memorial Institute medium (RPMI 1640, phenol red-free—S. aureus); Trypticase Soya Broth (TSB—S. aureus, S. pneumoniae); Todd Hewitt Broth (THB—S. pneumoniae), M63 minimal medium, supplemented with 0.2% glucose (M63—K. pneumoniae).
(§3) The broth culture was diluted in broth to a turbidity equal to a 0.5 McFarland Standard using a spectrophotometer at a wavelength of 620 nm. The 0.5 McFarland Standard was further diluted 1:100 in broth to create the standard inoculum. 50 μl of this standard inoculum was dispensed into every well in the microtitre tray, except the negative controls, where 50 μl of broth was dispensed instead.
(§4) Next, a working concentration at two times the highest target concentration for every antimicrobial was created in broth from stock solutions. 100 μl of this working concentration was pipetted into the first well, and 50 μl of broth media into all other wells. 50 μl of the first well was pipetted out and serially diluted across all wells in the row until the final concentration in the range achieved. 50 μl from the final well was removed and discarded. This produced a concentration range where each well was double the target concentration. All agents were performed in duplicate.
(§5) 96 well trays were incubated at 37° C. for 18±2 hours.

S. aureus MRSA 510 = experiment: Minimum inhibitory concentration of metal salts by broth microdilution in Trypticase Soya broth (Example 4); assay type: cell-based, Staphylococcus aureus
Experimental: Bacterial strains were maintained as suspensions in 20% (v/v) glycerol/Brain-Heart Infusion at −80° C. For use, a loop-full of ice was scraped from the stock and streaked for single colonies on Trypticase Soya agar containing 1.8% agar and incubated overnight at 37° C.
A standard inoculum was prepared from broth culture. One to three colonies from an overnight agar culture plate were transferred to 5 ml of broth media and incubated at 37° C. with shaking (200 rpm) until turbidity was greater than that of a 0.5 McFarland Standard (overnight). All assays were performed in Trypticase Soya broth.
as §3
Next, a working concentration at two times the highest target concentration for every salt (in aqueous solution) was created in broth from stock solutions. 100 μl of this working concentration was pipetted into the first well, and 50 μl of broth media into all other wells. 50 μl of the first well was pipetted out and serially diluted across all wells in the row until the final concentration in the range achieved. 50 μl from the final well was removed and discarded. This produced a concentration range where each well was double the target concentration. All agents were performed in duplicate.
as §5

P. aeruginosa WACC91 = experiment: Minimum inhibitory concentration by broth microdilution (Example 2); assay type: cell-based, Pseudomonas aeruginosa
Experimental: as §1, §2, §3, §4, §5

[4] = antibiotic + 1 mM D-Lactic acid
[5] = antibiotic + 10 mM D-Lactic acid

O=C(O)C(O)c1ccccc1 (stereo not shown) [2-hydroxy-2-phenylacetic acid]
Water solubility* [1]: 1140 mM

CC1(C)S[C@@H]2[C@H](NC(=O)[C@H](N)c3ccccc3)C(=O)N2[C@H]1C(=O)O [ampicillin]
Relative metabolic activity, antibiotic plus D-Lactic acid versus antibiotic only (S. pneumoniae D39 [2]): enhances metabolic activity suppression | MIC + 1 mM D-Lactic acid (S. pneumoniae D39 [3]; [4]): 4.0 | MIC + 10 mM D-Lactic acid (S. pneumoniae D39 [3]; [5]): 4.0 | MIC (S. pneumoniae D39 [3]; antibiotic alone): >16.0

[Cu+2] [Cu^2+]
MIC D-Lactate salt (S. aureus MRSA 510; metal ion as D-Lactate salt): 4 mM | MIC (NO3)2 salt (S. aureus MRSA 510; metal ion as nitrate salt): 8 mM

CCCC(O)C(=O)O (stereo not shown) [2-hydroxypentanoic acid]
Water solubility* [1]: 1640 mM

C[C@H]1[C@H](NC(=O)/C(=N\OC(C)(C)C(=O)O)c2csc(N)n2)C(=O)N1S(=O)(=O)O [aztreonam]
MIC + 1 mM D-Lactic acid (P. aeruginosa WACC91; [4]): 4.0 | MIC + 10 mM D-Lactic acid (P. aeruginosa WACC91; [5]): 4.0 | MIC (P. aeruginosa WACC91; antibiotic alone): 8.0

CCC(O)C(=O)O (stereo not shown) [2-hydroxybutanoic acid]
Water solubility* [1]: 1930 mM

CCCCC(O)C(=O)O (stereo not shown) [2-hydroxyhexanoic acid]
Water solubility* [1]: 270 mM
